What was measured:
[1] = test system: Echinochloa crus-galli var. crus-galli; assay: Test Example 3: herbicidal effect by foliage application, Wagner pot (symbol H); format: in vivo; conditions: application herbicide amount 320 g/ha
Summary of the method: (§1)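 In a shallow-flooded alluvial soil system held at 25–30 °C, plants including rice grew for 14 days and were then sprayed over the foliage with emulsion diluted to a fixed herbicide amount. Visual rating followed at 3 weeks.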

Leptochloa chinensis = assay: Test Example 3: herbicidal effect by foliage application, Wagner pot (symbol D); format: in vivo; conditions: application herbicide amount 320 g/ha
Summary of the method: as §1

Cyperus difformis = assay: Test Example 3: herbicidal effect by foliage application, Wagner pot (symbol E); format: in vivo; conditions: application herbicide amount 320 g/ha
Summary of the method: as §1

[2] = test system: directly sowed rice plant; assay: Test Example 3: effect on crop by foliage application, Wagner pot (symbol b); format: in vivo; conditions: application herbicide amount 320 g/ha
Summary of the method: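 Plants are raised from seed in flooded paddy conditions: water stands 0.1–0.5 cm over alluvial soil, and the pot is kept in a greenhouse at 25–30 °C. Species sown are barnyardgrass (E. crus-galli var. crus-galli), Leptochloa chinensis, Cyperus difformis and rice.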

Digitaria ciliaris = assay: Test Example 5: herbicidal effect by foliage application, plastic box (symbol F); format: in vivo; conditions: 320 g/ha, 3 weeks after application
Summary of the method: (§2)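 Leaf-applied emulsion, water-diluted to a preset herbicide dose, on two-week-old seedlings raised in a 25° C. to 30° C. greenhouse; injury rated at 3 weeks using earlier criteria.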

Setaria viridis = assay: Test Example 5: herbicidal effect by foliage application, plastic box (symbol G); format: in vivo; conditions: 320 g/ha, 3 weeks after application
Summary of the method: as §2

[3] = test system: Echinochloa crus-galli var. crus-galli; assay: Test Example 5: herbicidal effect by foliage application, plastic box (symbol H); format: in vivo; conditions: 320 g/ha, 3 weeks after application
Summary of the method: as §2

Avena fatua = assay: Test Example 5: herbicidal effect by foliage application, plastic box (symbol I); format: in vivo; conditions: 320 g/ha, 3 weeks after application
Summary of the method: as §2

Alopecurus myosuroides = assay: Test Example 5: herbicidal effect by foliage application, plastic box (symbol J); format: in vivo; conditions: 320 g/ha, 3 weeks after application
Summary of the method: as §2

Lolium multiflorum Lam. = assay: Test Example 5: herbicidal effect by foliage application, plastic box (symbol K); format: in vivo; conditions: 320 g/ha, 3 weeks after application
Summary of the method: as §2

Apera spica-venti = assay: Test Example 5: herbicidal effect by foliage application, plastic box (symbol L); format: in vivo; conditions: 320 g/ha, 3 weeks after application
Summary of the method: as §2

Abutilon theophrasti = assay: Test Example 5: herbicidal effect by foliage application, plastic box (symbol M); format: in vivo; conditions: 320 g/ha, 3 weeks after application
Summary of the method: as §2

Amaranthus retroflexus = assay: Test Example 5: herbicidal effect by foliage application, plastic box (symbol N); format: in vivo; conditions: 320 g/ha, 3 weeks after application
Summary of the method: as §2

Chenopodium album = assay: Test Example 5: herbicidal effect by foliage application, plastic box (symbol O); format: in vivo; conditions: 320 g/ha, 3 weeks after application
Summary of the method: as §2

Stellaria media = assay: Test Example 5: herbicidal effect by foliage application, plastic box (symbol P); format: in vivo; conditions: 320 g/ha, 3 weeks after application
Summary of the method: as §2

Galium spurium = assay: Test Example 5: herbicidal effect by foliage application, plastic box (symbol Q); format: in vivo; conditions: 320 g/ha, 3 weeks after application
Summary of the method: as §2

Veronica persica = assay: Test Example 5: herbicidal effect by foliage application, plastic box (symbol R); format: in vivo; conditions: 320 g/ha, 3 weeks after application
Summary of the method: as §2

corn = assay: Test Example 5: effect on crop by foliage application, plastic box (symbol c); format: in vivo; conditions: 320 g/ha, 3 weeks after application
Summary of the method: (§3)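 Foliage-application test plants come from spot sowing in sterilized diluvial soil under a soil layer of about 1.5 cm, grown at 25° C. to 30° C. in a greenhouse.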

soybean = assay: Test Example 5: effect on crop by foliage application, plastic box (symbol d); format: in vivo; conditions: 320 g/ha, 3 weeks after application
Summary of the method: as §3

rice plant = assay: Test Example 5: effect on crop by foliage application, plastic box (symbol b); format: in vivo; conditions: 320 g/ha, 3 weeks after application
Summary of the method: as §3

wheat = assay: Test Example 5: effect on crop by foliage application, plastic box (symbol e); format: in vivo; conditions: 320 g/ha, 3 weeks after application
Summary of the method: as §3

beet = assay: Test Example 5: effect on crop by foliage application, plastic box (symbol f); format: in vivo; conditions: 320 g/ha, 3 weeks after application
Summary of the method: as §3

rapeseed = assay: Test Example 5: effect on crop by foliage application, plastic box (symbol g); format: in vivo; conditions: 320 g/ha, 3 weeks after application
Summary of the method: as §3

melting point: 181 to 184 °C
Compound: CON=C(C)CC1CC(O)=C(c2c(C)cc(C#N)cc2C)C1=O (stereo not drawn) [6-027]
herbicidal effect on H (Echinochloa crus-galli var. crus-galli), grade 0-5 [1]: 2 (Herbicidal ratio of 20% or higher and lower than 40%)
herbicidal effect on D (Leptochloa chinensis), grade 0-5 (Leptochloa chinensis): 3 (Herbicidal ratio of 40% or higher and lower than 70%)
herbicidal effect on E, grade 0-5 (Cyperus difformis): 0 (Herbicidal ratio of 5% or lower (almost no effect))
effect on crop b (directly sowed rice plant), grade 0-5 [2]: 0 (Herbicidal ratio of 5% or lower (almost no effect))
F: Digitaria ciliaris, herbicidal effect grade (Digitaria ciliaris): 3 (Herbicidal ratio of 40% or higher and lower than 70%)
G: Setaria viridis, herbicidal effect grade (Setaria viridis): 4 (Herbicidal ratio of 70% or higher and lower than 90%)
H: Echinochloa crus-galli var. crus-galli, herbicidal effect grade [3]: 4 (Herbicidal ratio of 70% or higher and lower than 90%)
I: Avena fatua, herbicidal effect grade (Avena fatua): 1 (Herbicidal ratio of 5% or higher and lower than 20%)
J: Alopecurus myosuroides, herbicidal effect grade (Alopecurus myosuroides): 0 (Herbicidal ratio of 5% or lower (almost no effect))
K: Lolium multiflorum Lam., herbicidal effect grade (Lolium multiflorum Lam.): 0 (Herbicidal ratio of 5% or lower (almost no effect))
L: Apera spica-venti, herbicidal effect grade (Apera spica-venti): 0 (Herbicidal ratio of 5% or lower (almost no effect))
M: Abutilon theophrasti, herbicidal effect grade (Abutilon theophrasti): 0 (Herbicidal ratio of 5% or lower (almost no effect))
N: Amaranthus retroflexus, herbicidal effect grade (Amaranthus retroflexus): 0 (Herbicidal ratio of 5% or lower (almost no effect))
O: Chenopodium album, herbicidal effect grade (Chenopodium album): 0 (Herbicidal ratio of 5% or lower (almost no effect))
P: Stellaria media, herbicidal effect grade (Stellaria media): 0 (Herbicidal ratio of 5% or lower (almost no effect))
Q: Galium spurium, herbicidal effect grade (Galium spurium): 0 (Herbicidal ratio of 5% or lower (almost no effect))
R: Veronica persica, herbicidal effect grade (Veronica persica): 0 (Herbicidal ratio of 5% or lower (almost no effect))
c: corn, effect on crop grade (corn): 1 (Herbicidal ratio of 5% or higher and lower than 20%)
d: soybean, effect on crop grade (soybean): 0 (Herbicidal ratio of 5% or lower (almost no effect))
b: directly sowed rice plant, effect on crop grade (rice plant): 1 (Herbicidal ratio of 5% or higher and lower than 20%)
e: wheat, effect on crop grade (wheat): 0 (Herbicidal ratio of 5% or lower (almost no effect))
f: beet, effect on crop grade (beet): 0 (Herbicidal ratio of 5% or lower (almost no effect))
g: rapeseed, effect on crop grade (rapeseed): 0 (Herbicidal ratio of 5% or lower (almost no effect))
